This is an account of results in patent publication US20230416243A1, “Process for Preparing Heterocyclic Methanone Compounds and AZA-Bicyclo Intermediates Thereof” (ACTINOGEN MEDICAL LIMITED, priority 2020, published 2023).

Molecules are shown by their SMILES.

The data set in a line: Solubility test in water. The format is physicochemical. The following applies: water at pH 4. On the procedure:
A saponification of A4 in aqueous conditions was conducted.

On to `O=C(O)c1csc(-c2cn[nH]c2)c1` [Compound A5], for which the Solubility in water result was “soluble”.
